Usually IC50 stands for the midpoint of a concentration-inhibition curve.

For test [1], the target named is hA2a/CHO (Homo sapiens (Human), UniProt P29274). Nature of the test: cAMP inhibition assay in hA2a/CHO cells, 10 μM adenosine.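 Also: compounds added to cells 30 min ahead of adenosine, then a further 30 min at 37 °C with adenosine before cAMP detection.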 In kind it is cell-based. The note with it: read-out: cAMP & FLIPR IC50 (nM) hA2a.
Procedure: hA2a/CHO, hA2b/CHO, hA3/CHO and mA2a/CHO (Genscript) were plated at 5×10^3 cells/well into 384-well polystyrene plates at the day of experiment. Compounds were pre-incubated with cells for 30 min at 37° C., 5% CO2. Then 10 μM adenosine was added to the cells and incubated for 30 min at 37° C., 5% CO2. Detection reagent (CISBIO) was added and the plates were incubated for 60 min at room temperature. The signal was captured by Envision.
In test [2] the target is hADORA1/CHO (hA1 expressing) cells (Homo sapiens (Human), UniProt P30542). Briefly: cell-based. The note with it: FLIPR inhibition, 10 μM adenosine, read-out: cAMP & FLIPR IC50 (nM) hA1.
Sequence of hADORA1/CHO (hA1 expressing) cells (P30542 whole entry): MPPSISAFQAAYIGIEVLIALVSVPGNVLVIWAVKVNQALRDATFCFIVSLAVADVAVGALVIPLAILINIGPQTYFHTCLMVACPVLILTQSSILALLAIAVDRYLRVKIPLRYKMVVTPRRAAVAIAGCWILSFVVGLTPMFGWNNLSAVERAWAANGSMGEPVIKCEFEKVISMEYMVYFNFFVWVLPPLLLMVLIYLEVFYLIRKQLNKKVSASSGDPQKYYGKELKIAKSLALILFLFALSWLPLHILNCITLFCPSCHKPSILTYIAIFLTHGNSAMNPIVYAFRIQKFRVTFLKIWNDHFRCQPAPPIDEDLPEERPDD

Sequence of hA2a/CHO (P29274 whole entry): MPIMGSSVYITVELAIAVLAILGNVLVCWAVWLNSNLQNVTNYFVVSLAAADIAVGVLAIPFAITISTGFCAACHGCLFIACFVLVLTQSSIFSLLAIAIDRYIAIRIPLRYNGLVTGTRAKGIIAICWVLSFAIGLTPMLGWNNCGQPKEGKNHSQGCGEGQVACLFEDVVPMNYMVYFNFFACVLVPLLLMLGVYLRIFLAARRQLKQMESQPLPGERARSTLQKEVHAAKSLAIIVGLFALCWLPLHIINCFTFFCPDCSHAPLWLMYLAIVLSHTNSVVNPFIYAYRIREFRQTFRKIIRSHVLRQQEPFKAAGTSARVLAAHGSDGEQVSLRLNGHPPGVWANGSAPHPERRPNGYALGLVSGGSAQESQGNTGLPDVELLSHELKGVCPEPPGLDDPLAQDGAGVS

Consider `Cc1cnc2ccc(-c3nc(C(=O)NC(C)C4CCCO4)c(N)nc3-c3ncco3)cn12` (single isomer, unassigned; isomer 3) [Example 274, 3-amino-6-(3-methylimidazo[1,2-a]pyridin-6-yl)-5-(oxazol-2-yl)-N-(1-(tetrahydrofuran-2-yl)ethyl)pyrazine-2-carboxamide (isomer 3)], for which the results for the IC50 in test [1] and in test [2] were 0.9 nM and 275 nM, respectively.

`Cc1cnc2ccc(-c3nc(C(=O)NCc4cccc(N5CC(CN(C)C)C5)n4)c(N)nc3-c3ncco3)cn12` [Cmpd. 261, 3-amino-N-((6-(3-((dimethylamino)methyl)azetidin-1-yl)pyridin-2-yl)methyl)-6-(3-methylimidazo[1,2-a]pyridin-6-yl)-5-(oxazol-2-yl)pyrazine-2-carboxamide]: the IC50 in test [1] amounted to 0.4 nM; in test [2] it was 158 nM.

Turning to `Cc1cnc2ccc(-c3nc(CNC(=O)[C@H]4CCCN4C)c(N)nc3-c3cccc(F)c3)cn12` [Example 278, (R)—N-((3-amino-5-(3-fluorophenyl)-6-(3-methylimidazo[1,2-a]pyridin-6-yl)pyrazin-2-yl)methyl)-1-methylpyrrolidine-2-carboxamide], the figures for the IC50 in test [1] and in test [2] were 0.4 nM and 12 nM, respectively.

On to `Cc1cnc2ccc(-c3nc(C(=O)NCC4CCCN(C)C4=O)c(N)nc3-c3ncco3)cn12` (single isomer, unassigned; isomer 2) [Example 254, 3-amino-N-((1-methyl-2-oxopiperidin-3-yl)methyl)-6-(3-methylimidazo[1,2-a]pyridin-6-yl)-5-(oxazol-2-yl) pyrazine-2-carboxamide (isomer 2)], for which the IC50 in test [1] amounted to 0.7 nM; in test [2], 99 nM.

Turning to `Cc1cnc2ccc(-c3nc(C(=O)NCC4CC(C)(C)O4)c(N)nc3-c3ncco3)cn12` (single isomer, unassigned; isomer 1) [Example 260, 3-amino-N-((4,4-dimethyloxetan-2-yl)methyl)-6-(3-methylimidazo[1,2-a]pyridin-6-yl)-5-(oxazol-2-yl)pyrazine-2-carboxamide (isomer 1)], the 50% inhibitory concentration (IC50) came to 5.9 nM in test [1] and 30 nM in test [2].

Consider `Cc1cnc2ccc(-c3nc(CNC(=O)[C@H]4CCOC4)c(N)nc3-c3ccc(F)cc3)cn12` [Example 264, (S)-N-((3-amino-5-(4-fluorophenyl)-6-(3-methylimidazo[1,2-a]pyridin-6-yl)pyrazin-2-yl)methyl)tetrahydrofuran-3-carboxamide], for which the IC50 in test [1] was 25 nM; in test [2], 84 nM.

With `Cc1cnc2ccc(-c3nc(C(=O)N[C@@H]4CCOC4)c(N)nc3-c3ncco3)cn12` [Example 255, (R)-3-amino-6-(3-methylimidazo [1,2-a]pyridin-6-yl)-5-(oxazol-2-yl)-N-(tetrahydrofuran-3-yl)pyrazine-2-carboxamide], the figures for the IC50 in test [1] and in test [2] were 20 nM and 6850 nM, respectively.

Consider `Cc1cnc2ccc(-c3nc(C(=O)NCc4cccc(C5CCN(C)CC5)n4)c(N)nc3-c3ncco3)cn12` [Example 176, 3-amino-6-(3-methylimidazo[1,2-a]pyridin-6-yl)-N-((6-(1-methylpiperidin-4-yl)pyridin-2-yl)methyl)-5-(oxazol-2-yl) pyrazine-2-carboxamide], for which the IC50 in test [1] is 11 nM; in test [2], 599 nM.

Take `Cc1cnc2ccc(-c3nc(C(=O)NCc4c(F)cccc4F)c(N)nc3N3CCOCC3)cn12` [Example 238, 3-amino-N-(2,6-difluorobenzyl)-6-(3-methylimidazo[1,2-a]pyridin-6-yl)-5-morpholinopyrazine-2-carboxamide]: the IC50 was determined as 0.5 nM in test [1] and 401 nM in test [2].

Regarding `Cc1cnc2ccc(-c3nc(C(=O)NCC(C4CC4)N(C)C)c(N)nc3-c3ncco3)cn12` (single isomer, unassigned; isomer 1) [Example 253, 3-amino-N-(2-cyclopropyl-2-(dimethylamino)ethyl)-6-(3-methylimidazo[1,2-a]pyridin-6-yl)-5-(oxazol-2-yl) pyrazine-2-carboxamide (isomer 1)], the IC50 in test [1] was 12 nM; in test [2], 8170 nM.

Take `Cc1cnc2ccc(-c3nc(C(=O)NCC(C4CC4)N(C)C)c(N)nc3-c3ncco3)cn12` (single isomer, unassigned; isomer 2) [Example 269, 3-amino-N-(2-cyclopropyl-2-(dimethylamino)ethyl)-6-(3-methylimidazo[1,2-a]pyridin-6-yl)-5-(oxazol-2-yl) pyrazine-2-carboxamide (isomer 2)]: the IC50 in test [1] is 37 nM; in test [2], > 10000 nM.

As to `Cc1cnc2ccc(-c3nc(C(=O)NCC4CC(C)(C)O4)c(N)nc3-c3ncco3)cn12` (single isomer, unassigned; isomer 2) [Example 270, 3-amino-N-((4,4-dimethyloxetan-2-yl)methyl)-6-(3-methylimidazo[1,2-a]pyridin-6-yl)-5-(oxazol-2-yl)pyrazine-2-carboxamide (isomer 2)], the IC50 in test [1] stood at 7.4 nM; in test [2], 300 nM.

Consider `Cc1cnc2ccc(-c3nc(CNC(=O)C4CCCO4)c(N)nc3-c3ccc(F)cc3)cn12` (stereo in doubt) [Cmpd. 268, (2S)—N-[[3-amino-5-(4-fluorophenyl)-6-[3-methyl-imidazo-[1,2-a]pyridin-6-yl]pyrazin-2-yl]methyl]oxolane-2-carboxamide], for which the results for the IC50 in test [1] and in test [2] were 0.2 nM and 6.7 nM, respectively.

As to `Cc1cnc2ccc(-c3nc(C(=O)NCC4CCOCC4)c(N)nc3-c3ncco3)cn12` [Example 239, 3-amino-6-(3-methylimidazo[1,2-a]pyridin-6-yl)-5-(oxazol-2-yl)-N-((tetrahydro-2H-pyran-4-yl)methyl) pyrazine-2-carboxamide], the IC50 was 4.8 nM in test [1] and 2960 nM in test [2].

As to `Cc1cnc2ccc(-c3nc(CNC(=O)[C@H]4CCCN4C)c(N)nc3-c3cc(F)cc(F)c3)cn12` [Example 291, (2R)—N-[[3-amino-5-(3,5-difluorophenyl)-6-[3-methylimidazo[1,2-a]pyridin-6-yl]pyrazin-2-yl]methyl]-1-methylpyrrolidine-2-carboxamide], the IC50 in test [1] was 1.1 nM.

Turning to `Cc1cnc2ccc(-c3nc(C(=O)NCc4ncccc4F)c(N)nc3N3CCOCC3)cn12` [Cmpd. 223, 3-amino-N-[(3-fluoropyridin-2-yl)methyl]-6-[3-methylimidazo[1,2-a]pyridin-6-yl]-5-(morpholin-4-yl)pyrazine-2-carboxamide], the IC50 in test [2] was > 10000 nM.

As to `Cc1cnc2ccc(-c3nc(C(=O)NCC(C)(C)C(=O)N(C)C)c(N)nc3-c3ncco3)cn12` [Example 281, 3-[(3-amino-6-[3-methylimidazo[1,2-a]pyridin-6-yl]-5-(1,3-oxazol-2-yl)pyrazin-2-yl)formamido]-N,N,2,2-tetramethylpropanamide], the IC50 in test [1] was 0.3 nM.

On to `COC1CCCC(NC(=O)c2nc(-c3ccc4ncc(C)n4c3)c(-c3ncco3)nc2N)C1` (single isomer, unassigned; isomer4) [Example 295, 3-amino-N-(3-methoxycyclohexyl)-6-(3-methylimidazo[1,2-a]pyridin-6-yl)-5-(oxazol-2-yl) pyrazine-2-carboxamide (isomer4)], for which the IC50 in test [1] turned out to be 13 nM.

On to `Cc1cnc2ccc(-c3nc(C(=O)NCc4cccc(N5[C@@H]6C[C@H]5CN(C)C6)n4)c(N)nc3-c3ncco3)cn12` [Example 174, 3-amino-N-((6-(3-methyl-3,6-diazabicyclo[3.1.1]heptan-6-yl)pyridin-2-yl)methyl)-6-(3-methylimidazo[1,2-a]pyridin-6-yl)-5-(oxazol-2-yl)pyrazine-2-carboxamide], for which, in test [1], the IC50 was found to be 6.9 nM.

Regarding `Cc1cnc2ccc(-c3nc(C(=O)NCC4OCC4(C)C)c(N)nc3-c3ncco3)cn12` (single isomer, unassigned; isomer 1) [Example 288, 3-amino-N-((3,3-dimethyloxetan-2-yl)methyl)-6-(3-methylimidazo[1,2-a]pyridin-6-yl)-5-(oxazol-2-yl)pyrazine-2-carboxamide (isomer 1)], in test [1], the IC50 was determined as 0.6 nM.

Consider `Cc1cnc2ccc(-c3nc(C(=O)NCc4cccc(N5CC6(CCN(C)C6)C5)n4)c(N)nc3-c3ncco3)cn12` [Cmpd. 175, 3-amino-N-((6-(6-methyl-2,6-diazaspiro[3.4]octan-2-yl)pyridin-2-yl)methyl)-6-(3-methylimidazo[1,2-a]pyridin-6-yl)-5-(oxazol-2-yl)pyrazine-2-carboxamide], for which the IC50 in test [1] came to 0.9 nM.

Consider `Cc1cnc2ccc(-c3nc(C(=O)NC[C@H]4CCCN4C)c(N)nc3-c3ccc(F)c(F)c3)cn12` [Cmpd. 272, 3-amino-5-(3,4-difluorophenyl)-6-[3-methylimidazo[1,2-a]pyridin-6-yl]-N-[[(2R)-1-methylpyrrolidin-2-yl]methyl]pyrazine-2-carboxamide], for which the IC50 in test [1] is 37 nM.

In the case of `NCc1cnc2ccc(-c3nc(C(=O)NCc4ncccc4F)c(N)nc3-c3ncco3)cn12` [Cmpd. 198, 3-amino-6-(3-(aminomethyl)imidazo[1,2-a]pyridin-6-yl)-N-((3-fluoropyridin-2-yl)methyl)-5-(oxazol-2-yl)pyrazine-2-carboxamide], the IC50 in test [2] is > 10000 nM.

As for `CNC1CN(c2cccc(CNC(=O)c3nc(-c4ccc5ncc(C)n5c4)c(-c4ncco4)nc3N)n2)C1` [Example 303, 3-amino-N-((6-(3-(methylamino)azetidin-1-yl)pyridin-2-yl)methyl)-6-(3-methylimidazo[1,2-a]pyridin-6-yl)-5-(oxazol-2-yl)pyrazine-2-carboxamide], the IC50 in test [1] worked out at 0.4 nM.

Turning to `Cc1cnc2ccc(-c3nc(C(=O)NC(C)Cn4cncn4)c(N)nc3-c3ncco3)cn12` (racemic) [Example 306, rac-N-(1-(1H-1,2,4-triazol-1-yl)propan-2-yl)-3-amino-6-(3-methylimidazo [1,2-a]pyridin-6-yl)-5-(oxazol-2-yl) pyrazine-2-carboxamide], in test [1], the IC50 was found to be 14 nM.

Take `Cc1cnc2ccc(-c3nc(CNC(=O)[C@H]4CCCN4C)c(N)nc3-c3ccc(F)c(F)c3)cn12` [Cmpd. 257, (2R)—N-[[3-amino-5-(3,4-difluorophenyl)-6-[3-methylimidazo[1,2-a]pyridin-6-yl]pyrazin-2-yl]methyl]-1-methylpyrrolidine-2-carboxamide]: the IC50 in test [1] was determined as 1.5 nM.

These data come from US10898481B2 (priority 2018, dated 2021).
